Patent US20220387366A1, “Compositions for Regulating Homeostasis of Cortisol and Improving Sleep Quality and Methods of Use and Production Thereof” (Unigen, Inc., priority 2021, published 2022)
Marks after values point to notes of the source that are not given here.

What was measured:
MT1 receptor = biological target: T1, MT1 receptor (Homo sapiens, UniProt P48039); assay: Melatonin receptor MT1 binding assay, displacement of [125I]2-Iodomelatonin; conditions: for inhibition at 0.015625 µg/mL: 0.015625 μg/mL; for inhibition at 0.03125 µg/mL: 0.03125 μg/mL; for inhibition at 0.0625 µg/mL: 0.0625 μg/mL; for inhibition at 0.125 µg/mL: 0.125 μg/mL; for inhibition at 0.25 µg/mL: 0.25 μg/mL; for inhibition at 0.5 µg/mL: 0.5 μg/mL; for inhibition at 1 µg/mL: 1 μg/mL; for inhibition at 2 µg/mL: 2 μg/mL; for inhibition at 4 µg/mL: 4 μg/mL; for inhibition at 8 µg/mL: 8 μg/mL; for inhibition against MT1 receptor: concentration range from 8 ug/mL to 0.015625 μg/mL
T1 construct: expressed in transfected cells; host or cells: CHO-K1 cells (membranes)
T1 sequence (P48039 whole entry): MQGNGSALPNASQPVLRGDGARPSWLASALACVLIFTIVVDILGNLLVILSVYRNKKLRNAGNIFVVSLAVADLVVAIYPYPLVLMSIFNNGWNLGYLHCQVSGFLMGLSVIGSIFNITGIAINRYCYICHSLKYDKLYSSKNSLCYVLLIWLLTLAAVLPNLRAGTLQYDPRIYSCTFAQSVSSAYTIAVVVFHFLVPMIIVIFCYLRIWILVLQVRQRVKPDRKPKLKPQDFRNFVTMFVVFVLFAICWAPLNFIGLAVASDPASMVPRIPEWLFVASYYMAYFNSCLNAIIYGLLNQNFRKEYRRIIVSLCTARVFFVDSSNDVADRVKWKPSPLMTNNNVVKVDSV
Procedure: Human recombinant melatonin receptors (MT1 and MT2) were expressed in CHO-K1 cells and resuspended in buffer. The membranes containing recombinant receptors were incubated with test compounds in combination with 0.05 nM [125I]2-lodomelatonin for 180 minutes at 25° C. Membranes were immobilized on filters before being washed and the [125I]2-Iodomelatonin was counted. Test compounds that bound to MT1 or MT2 in the same binding site as melatonin displaced [125I]2-lodomelatonin, reducing the count. […] 0.00021 μM Melatonin was used as a positive control to displace [125I]2-Iodomelatonin (Paul et al., 1999; Beresford et al., 1998).
All samples were dissolved in 1% DMSO.

MT2 receptor = biological target: T2, MT2 receptor (Homo sapiens, UniProt P49286); assay: Melatonin receptor MT2 binding assay, displacement of [125I]2-Iodomelatonin; conditions: for inhibition at 0.015625 µg/mL: 0.015625 μg/mL; for inhibition at 0.03125 µg/mL: 0.03125 μg/mL; for inhibition at 0.0625 µg/mL: 0.0625 μg/mL; for inhibition at 0.125 µg/mL: 0.125 μg/mL; for inhibition at 0.25 µg/mL: 0.25 μg/mL; for inhibition at 1 µg/mL: 1 μg/mL; for inhibition at 2 µg/mL: 2 μg/mL; for inhibition at 4 µg/mL: 4 μg/mL; for inhibition at 8 µg/mL: 8 μg/mL; for inhibition against MT2 receptor: concentration range from 8 ug/mL to 0.015625 μg/mL
T2 construct: expressed in transfected cells; host or cells: CHO-K1 cells (membranes)
T2 sequence (P49286 1-362): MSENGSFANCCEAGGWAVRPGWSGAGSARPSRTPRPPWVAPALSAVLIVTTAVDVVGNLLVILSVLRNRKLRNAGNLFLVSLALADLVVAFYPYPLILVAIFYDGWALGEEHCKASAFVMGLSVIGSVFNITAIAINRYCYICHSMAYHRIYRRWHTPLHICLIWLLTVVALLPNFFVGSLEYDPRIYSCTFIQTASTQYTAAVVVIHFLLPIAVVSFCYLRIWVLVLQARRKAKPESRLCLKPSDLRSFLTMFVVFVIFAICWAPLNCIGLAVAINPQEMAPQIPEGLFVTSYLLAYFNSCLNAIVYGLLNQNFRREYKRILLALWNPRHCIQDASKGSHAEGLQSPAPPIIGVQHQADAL

Male BALB/C mice [1] = assay: Sleep time induced by pentobarbital sodium (36 mg/kg i.p.) after 32 days of dosing; format: in vivo
Procedure: Male BALB/C mice (18 g˜22 g) were randomly assigned to groups of vehicle control (sterile water); positive control group, melatonin 1 mg/kg BW (0.1 g/L); low dose group, a composition derived from enriched for one or more phenylpropanoid acids and benzoxazinoids 250 mg/kg BW (25 g/L in sterile water); middle dose group, a composition derived from enriched for one or more phenylpropanoid acids and benzoxazinoids 500 mg/kg BW (50 g/L in sterile water); and high dose group, a composition derived from enriched for one or more phenylpropanoid acids and benzoxazinoids 1000 mg/kg BW (100 g/L in sterile water). Each animal received the respective dose daily for 32 consecutive days. 15 min after the last dose, each group of mice was intraperitoneally injected with 36 mg/kg pentobarbital sodium (in 0.1 mL/10 g). The sleep time of each mouse was recorded and the difference of sleep time between a composition derived from enriched for one or more phenylpropanoid acids and benzoxazinoids-treated groups and vehicle control was determined.

Male BALB/C mice [2] = assay: Sleep latency / sleeping incidence with subthreshold pentobarbital sodium (26 mg/kg i.p.) after 32 days of dosing; format: in vivo; conditions: 1 mg/kg
Procedure: Male BALB/C mice (18 g˜22 g) were randomly assigned to groups of vehicle control (sterile water); positive control group, melatonin 1 mg/kg BW (0.1 g/L); low dose group, a composition derived from enriched for one or more phenylpropanoid acids and benzoxazinoids 250 mg/kg BW (25 g/L in sterile water); middle dose group, a composition derived from enriched for one or more phenylpropanoid acids and benzoxazinoids 500 mg/kg BW (50 g/L in sterile water); and high dose group, a composition derived from enriched for one or more phenylpropanoid acids and benzoxazinoids 1000 mg/kg BW (100 g/L in sterile water). Each animal received the respective dose daily for 32 consecutive days. Mice from each group were intraperitoneally injected with 26 mg/kg pentobarbital sodium (0.1 mL/10 g BW), 15 min after the last dose to induce subthreshold hypnosis. The numbers of mice that lose the reflex to turnover to the right side over 1 min after injection of pentobarbital sodium were recorded for 30 min. The incidence of sleeping mice was analyzed to compare the difference between the tested substance groups and vehicle control. Latency of sleep is the number of animals with loss of the righting reflex in duration of time elapsed after pentobarbital administrations. […] As a result, the subthreshold dose of pentobarbital was given to each mouse 15 min after the last dose of test materials to assess the effect of materials on sleep latency. Thirty minutes post pentobarbital injection, the number of mice with no reflex to turn over to the right side over the duration of 1 min was recorded. Data were reported as incidence of sleeping. […] These incidences were statistically significant for both the high dose of UP165 and melatonin compared to the vehicle control animals. In comparison, the incidence in the vehicle-treated group was only 20%. Positive trends (60% of mice both in the 250 and 500 mg/kg group) were also observed for the low and mid doses of UP165.

Male BALB/C mice [3] = assay: Acute effect on sleep following a single oral administration; format: in vivo; conditions: single oral 1 mg/kg
Procedure: Male BALB/C mice (18 g˜22 g) were randomly assigned to groups of vehicle control (sterile water); positive control group, melatonin 1 mg/kg BW (0.1 g/L); low dose group, a composition derived from enriched for one or more phenylpropanoid acids and benzoxazinoids 250 mg/kg BW (25 g/L in sterile water); middle dose group, a composition derived from enriched for one or more phenylpropanoid acids and benzoxazinoids 500 mg/kg BW (50 g/L in sterile water); and high dose group, a composition derived from enriched for one or more phenylpropanoid acids and benzoxazinoids 1000 mg/kgBW (100 g/L in sterile water). Mice were administered the respective treatment group and observed for 60 min monitor the direct impact of test compounds on sleep following a single oral administration. When naive mice are placed into a supine position, they instantaneously turn to the upright position. However, mice under the hypnotic dose of pentobarbital remain on the supine position for measurable amount of time. Sleeping was indexed as the disappearance of reflex to turnover to the right side, and mouse was considered asleep when the time to turn over to the side was over 30 s after mouse was treated with a composition derived from enriched for one or more phenylpropanoid acids and benzoxazinoids. In the current study, none of the treatment groups induce sleep following a single oral administration (Table 15).

COc1ccc2c(c1)OC(O[C@@H]1O[C@H](CO)[C@@H](O)[C@H](O)[C@H]1O)C(=O)N2 (stereo partly drawn) [MW357, 2-(β-D-Glucopyranosyloxy)-7-methoxy-2H-1,4-benzoxazin-3(4H)-one]
inhibition at 0.015625 µg/mL (MT1 receptor): 3%
inhibition at 0.03125 µg/mL (MT1 receptor): 1%
inhibition at 0.0625 µg/mL (MT1 receptor): -4%
inhibition at 0.125 µg/mL (MT1 receptor): -1%
inhibition at 0.25 µg/mL (MT1 receptor): 0%
inhibition at 0.5 µg/mL (MT1 receptor): -5%
inhibition at 1 µg/mL (MT1 receptor): -2%
inhibition at 2 µg/mL (MT1 receptor): -4%
inhibition at 4 µg/mL (MT1 receptor): -5%
inhibition at 8 µg/mL (MT1 receptor): 0%
inhibition against MT1 receptor (MT1 receptor): Neither compound show any inhibition
inhibition at 0.015625 µg/mL (MT2 receptor): 4%
inhibition at 0.03125 µg/mL (MT2 receptor): 2%
inhibition at 0.0625 µg/mL (MT2 receptor): 1%
inhibition at 0.125 µg/mL (MT2 receptor): -6%
inhibition at 0.25 µg/mL (MT2 receptor): 5%
inhibition at 0.5 µg/mL (MT2 receptor; 0.5 μg/mL): 4%
inhibition at 1 µg/mL (MT2 receptor): 3%
inhibition at 2 µg/mL (MT2 receptor): 10%
inhibition at 4 µg/mL (MT2 receptor): 5%
inhibition at 8 µg/mL (MT2 receptor): 3%
inhibition against MT2 receptor (MT2 receptor): Neither compound show any inhibition

O=C(O)CCc1ccc(O)cc1 [Phloretic acid]
inhibition at 5 µg/mL (MT2 receptor; isolated compounds, 5 μg/mL): 69%
inhibition at 25 µg/mL (MT2 receptor; isolated compounds, 25 μg/mL): 94%

COc1ccc2[nH]cc(CCNC(C)=O)c2c1 [Melatonin]
increase in sleep time compared to vehicle control (Male BALB/C mice [1]; 1 mg/kg): 12.0 ± 1.3 min
Sleep Time (Male BALB/C mice [1]; 1 mg/kg daily for 32 days, Mean ± SD): 42.6 ± 10.7 min
Incidence of sleeping (Male BALB/C mice [2]): 80%*
Sleeping No. (Male BALB/C mice [2]; of 15 mice): 12
Incidence of sleeping (Male BALB/C mice [2]; listed as melatonin): 80%
Incidence of sleeping (Male BALB/C mice [3]): 0%
Sleeping No. (Male BALB/C mice [3]; of 15 mice): 0

3-methoxy-hydrocoumaric acid
MT2 receptor binding (inhibition) (MT2 receptor; isolated compounds, 0.5 μg/mL): 8.9%
MT2 receptor binding (inhibition) (MT2 receptor; isolated compounds, 2.5 μg/mL): 22.9%

COc1ccc2nc(O)oc2c1 [6-MBOA, 6-methoxy-2-benzoxazolol, reference compound]
inhibition at 0.0032 µM (MT1 receptor; 0.0032 μM): 2%
inhibition at 0.0064 µM (MT1 receptor; 0.0064 μM): 3%
inhibition at 0.013 µM (MT1 receptor; 0.013 μM): 8%
inhibition at 0.025 µM (MT1 receptor; 0.025 μM): 11%
inhibition at 0.051 µM (MT1 receptor; 0.051 μM): 5%
inhibition at 0.102 µM (MT1 receptor; 0.102 μM): 1%
inhibition at 0.204 µM (MT1 receptor; 0.204 μM): 7%
inhibition at 0.407 µM (MT1 receptor; 0.407 μM): 6%
inhibition at 0.815 µM (MT1 receptor; 0.815 μM): 7%
inhibition at 1.63 µM (MT1 receptor; 1.63 μM): 8%
inhibition of 2-lodomelatonin binding to MT1 (MT1 receptor; at the concentrations tested (3.2 nM to 1.63 μM)): did not inhibit
inhibition at 0.815 µM (MT2 receptor; 0.815 μM): -12%
inhibition at 1.63 µM (MT2 receptor; 1.63 μM): -4%
inhibition at 3.26 µM (MT2 receptor; 3.26 μM): 8%
inhibition at 6.52 µM (MT2 receptor; 6.52 μM): 11%
inhibition at 13.04 µM (MT2 receptor; 13.04 μM): 15%
inhibition of 2-lodomelatonin binding to MT2 (MT2 receptor; at the concentrations tested (0.815 to 13.04 μM)): did not inhibit

COc1cc(/C=C/C(=O)O)ccc1O [Ferulic acid]
inhibition at 0.5 µg/mL (MT2 receptor; isolated compounds, 0.5 μg/mL): 2.6%
inhibition at 2.5 µg/mL (MT2 receptor; isolated compounds, 2.5 μg/mL): 1.6%

COc1ccc2c(c1)OC(O[C@@H]1O[C@H](CO)[C@@H](O)[C@H](O)[C@H]1O)C(=O)N2OC (stereo partly drawn) [MW387, 2-(β-D-Glucopyranosyloxy)-4,7-dimethoxy-2H-1,4-benzoxazin-3(4H)-one]
inhibition at 0.015625 µg/mL (MT1 receptor): 2%
inhibition at 0.03125 µg/mL (MT1 receptor): -3%
inhibition at 0.0625 µg/mL (MT1 receptor): -6%
inhibition at 0.125 µg/mL (MT1 receptor): -2%
inhibition at 0.25 µg/mL (MT1 receptor): 6%
inhibition at 0.5 µg/mL (MT1 receptor): 6%
inhibition at 1 µg/mL (MT1 receptor): 1%
inhibition at 2 µg/mL (MT1 receptor): -1%
inhibition at 4 µg/mL (MT1 receptor): -5%
inhibition at 8 µg/mL (MT1 receptor): 3%
inhibition against MT1 receptor (MT1 receptor): Neither compound show any inhibition
inhibition at 0.015625 µg/mL (MT2 receptor): -4%
inhibition at 0.03125 µg/mL (MT2 receptor): -6%
inhibition at 0.0625 µg/mL (MT2 receptor): -2%
inhibition at 0.125 µg/mL (MT2 receptor): -6%
inhibition at 0.25 µg/mL (MT2 receptor): -3%
inhibition at 0.5 µg/mL (MT2 receptor; 0.5 μg/mL): 7%
inhibition at 1 µg/mL (MT2 receptor): -2%
inhibition at 2 µg/mL (MT2 receptor): 0%
inhibition at 4 µg/mL (MT2 receptor): 3%
inhibition at 8 µg/mL (MT2 receptor): 4%
inhibition against MT2 receptor (MT2 receptor): Neither compound show any inhibition

COc1ccc2c(c1)OC(O)C(=O)N2 (stereo not drawn) [HMBOA, 2-Hydroxy-7-methoxy-2H-1,4-benzoxazin-3(4H)-one]
inhibition at 0.5 µg/mL (MT2 receptor; isolated compounds, 0.5 μg/mL): 3.9%
inhibition at 2.5 µg/mL (MT2 receptor; isolated compounds, 2.5 μg/mL): 28%

O=C(O)/C=C/c1ccc(O)cc1 [p-coumaric acid]
inhibition at 0.5 µg/mL (MT2 receptor; isolated compounds, 0.5 μg/mL): 0.5%
inhibition at 2.5 µg/mL (MT2 receptor; isolated compounds, 2.5 μg/mL): 6.7%
